Values quoted from earlier work, collected in patent publication US20240316118A1, “ANTIVIRAL NASAL SPRAY FLAVONOIDS?BEE PROPOLIS” (priority 2022, published 2024).
In brackets after ≈: the same amount, converted by molar mass. Where two headings read alike, the source gives them in different places.

What was measured:
[1] = test system: Rotavirus virions; conditions: Rhesus Rotavirus, Ref. [20]
[2] = test system: HCV replicase; conditions: Ref. [19]
[3] = molecular target: NS3 protease (Hepatitis C virus genotype 1a, UniProt P26664); conditions: for Molecular Mechanisms: HCV replication: NS3 protease
[4] = test system: DENV-2 virions; conditions: DENV-2, Ref. [40]
[5] = molecular target: NS1 (Dengue virus type 2, UniProt P29990); conditions: Ref. [23] (molecular docking)
[6] = test system: NOX4; conditions: NOX4, Ref. [24]
[7] = molecular target: HIV protease (Human immunodeficiency virus type 1 group M subtype B, UniProt P04585); conditions: Ref. [27] (computational)
[8] = molecular target: NS5B polymerase (Hepatitis C virus genotype 1a, UniProt P26664); conditions: for Molecular Mechanisms: HCV replication: NS5B polymerase, Refs. [33], [40]
[9] = test system: Vero E6 cells
[10] = test system: SARS-CoV; conditions: Vero E6 cells; read-out: half-effective concentration (EC50), SARS-CoV infection
[11] = test system: NS5A, HSP70, HCV virions; conditions: Ref. [41]
[12] = molecular target: Envelope protein, 2 (Hepatitis C virus genotype 1a, UniProt P26664); conditions: HCV Envelope protein 2, Ref. [41]
[13] = test system: Phosphoprotein P; conditions: Ref. [32]; for Molecular Mechanisms: viral replication: RSV
[14] = test system: cytomegalovirus; conditions: inoculated HeLa cells; read-out: half inhibitory concentration (IC50), replication of cytomegalovirus
[15] = test system: Dengue virus type 2 (DENV-2); conditions: Vero cells
[16] = test system: bovine coronavirus NCDCV; conditions: at a concentration of 60 μg/mL
[17] = test system: human coronavirus OC43; conditions: at a concentration of 60 μg/mL
[18] = test system: Influenza virions; conditions: Influenza A/WS/33, Ref. [37]
[19] = test system: PEDV; conditions: Vero cells
[20] = test system: Vero cells; conditions: PEDV study
[21] = molecular target: NTCP receptor (Homo sapiens, UniProt Q14973)
[22] = molecular target: Reverse transcriptase (Human immunodeficiency virus type 1 group M subtype B, UniProt P04585); conditions: Refs. [43], [31]

Chain of NS5B polymerase (P26664 2421-3011): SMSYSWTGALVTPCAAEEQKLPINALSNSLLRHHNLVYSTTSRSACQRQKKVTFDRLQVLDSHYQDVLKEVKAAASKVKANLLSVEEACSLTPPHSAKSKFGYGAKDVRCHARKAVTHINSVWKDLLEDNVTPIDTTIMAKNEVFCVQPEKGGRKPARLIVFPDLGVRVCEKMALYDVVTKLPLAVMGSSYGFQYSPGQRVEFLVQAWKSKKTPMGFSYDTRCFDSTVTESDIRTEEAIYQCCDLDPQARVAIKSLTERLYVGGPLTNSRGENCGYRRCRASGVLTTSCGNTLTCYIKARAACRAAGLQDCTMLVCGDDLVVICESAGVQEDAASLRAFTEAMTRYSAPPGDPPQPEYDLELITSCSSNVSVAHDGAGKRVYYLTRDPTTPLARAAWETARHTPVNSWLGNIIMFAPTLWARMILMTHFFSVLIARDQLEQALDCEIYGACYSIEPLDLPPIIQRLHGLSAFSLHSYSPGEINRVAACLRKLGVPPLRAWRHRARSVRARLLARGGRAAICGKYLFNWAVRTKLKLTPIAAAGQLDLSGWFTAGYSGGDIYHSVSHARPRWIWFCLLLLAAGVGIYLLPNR
Chain of NS1 (P29990 776-1127 limits assumed): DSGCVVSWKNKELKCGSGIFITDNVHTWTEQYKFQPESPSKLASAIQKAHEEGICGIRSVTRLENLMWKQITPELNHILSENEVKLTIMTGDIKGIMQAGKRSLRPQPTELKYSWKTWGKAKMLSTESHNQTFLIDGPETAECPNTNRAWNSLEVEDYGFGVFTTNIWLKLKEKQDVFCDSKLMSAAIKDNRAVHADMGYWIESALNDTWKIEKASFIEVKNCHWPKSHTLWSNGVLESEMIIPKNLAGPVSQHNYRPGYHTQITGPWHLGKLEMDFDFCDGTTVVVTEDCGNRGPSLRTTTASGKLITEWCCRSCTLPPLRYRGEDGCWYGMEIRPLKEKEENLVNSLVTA
Chain of NS3 protease (P26664 1027-1657): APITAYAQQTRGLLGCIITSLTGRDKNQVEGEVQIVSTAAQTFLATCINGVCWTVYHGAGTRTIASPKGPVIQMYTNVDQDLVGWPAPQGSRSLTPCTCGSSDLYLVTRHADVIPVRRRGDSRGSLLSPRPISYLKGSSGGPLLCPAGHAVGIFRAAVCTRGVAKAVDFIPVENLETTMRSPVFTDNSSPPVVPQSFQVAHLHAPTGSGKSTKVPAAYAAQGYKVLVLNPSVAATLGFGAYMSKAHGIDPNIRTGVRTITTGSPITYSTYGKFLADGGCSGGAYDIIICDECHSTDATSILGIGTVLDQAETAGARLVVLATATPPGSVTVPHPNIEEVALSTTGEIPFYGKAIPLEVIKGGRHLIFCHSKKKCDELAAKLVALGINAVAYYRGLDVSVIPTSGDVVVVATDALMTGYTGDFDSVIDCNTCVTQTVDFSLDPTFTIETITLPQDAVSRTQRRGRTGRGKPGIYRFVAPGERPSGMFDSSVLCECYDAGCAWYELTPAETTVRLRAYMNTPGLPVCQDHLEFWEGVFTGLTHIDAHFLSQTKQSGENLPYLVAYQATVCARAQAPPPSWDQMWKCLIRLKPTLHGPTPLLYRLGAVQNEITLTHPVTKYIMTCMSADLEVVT
Chain of NS3 protease (P26664 1658-1711): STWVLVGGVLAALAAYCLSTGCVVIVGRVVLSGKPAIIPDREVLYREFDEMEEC
Chain of Envelope protein, 2 (P26664 384-746): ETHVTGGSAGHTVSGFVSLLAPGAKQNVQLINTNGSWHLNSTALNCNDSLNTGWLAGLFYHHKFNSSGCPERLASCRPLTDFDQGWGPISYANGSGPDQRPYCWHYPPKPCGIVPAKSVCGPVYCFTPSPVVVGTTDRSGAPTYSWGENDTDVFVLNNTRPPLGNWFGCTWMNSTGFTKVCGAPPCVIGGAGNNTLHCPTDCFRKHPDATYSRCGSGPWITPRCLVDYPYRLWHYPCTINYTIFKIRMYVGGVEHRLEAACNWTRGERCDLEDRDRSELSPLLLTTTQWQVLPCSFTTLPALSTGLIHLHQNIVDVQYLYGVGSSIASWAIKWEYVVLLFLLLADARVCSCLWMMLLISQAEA
Chain of NTCP receptor (Q14973 whole entry): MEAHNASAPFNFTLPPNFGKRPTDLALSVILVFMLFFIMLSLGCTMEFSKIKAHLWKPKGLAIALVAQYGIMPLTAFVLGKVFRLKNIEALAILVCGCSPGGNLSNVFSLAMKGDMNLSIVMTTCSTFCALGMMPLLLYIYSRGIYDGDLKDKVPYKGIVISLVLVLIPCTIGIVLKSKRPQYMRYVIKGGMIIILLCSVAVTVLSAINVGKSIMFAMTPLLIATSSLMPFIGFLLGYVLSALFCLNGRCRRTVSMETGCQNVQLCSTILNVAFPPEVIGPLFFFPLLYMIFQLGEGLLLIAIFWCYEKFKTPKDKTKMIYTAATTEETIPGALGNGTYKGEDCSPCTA

In the case of `O=c1cc(-c2ccc(O)cc2)oc2cc(O[C@@H]3O[C@H](CO)[C@@H](O)[C@H](O)[C@H]3O)cc(O)c12` [Apigenin-7-O-glucoside], the “Molecular Mechanisms: viral replication” value [1] is given as “Inhibition viral”.

In the case of `O=c1cc(-c2ccc(O)cc2)oc2cc(O)cc(O)c12` [Apigenin], the “Molecular Mechanisms: HCV replication” value [2] is given as “Inhibition HCV” and the “Molecular Mechanisms: HCV replication” value [3] is given as “Inhibition of HCV”.

For `O=C(O)[C@H]1O[C@@H](Oc2cc3oc(-c4ccccc4)cc(=O)c3c(O)c2O)[C@H](O)[C@@H](O)[C@@H]1O` [Baicalin], the “Molecular Mechanisms: viral replication” value [4] is listed as “Inhibition of viral replication,” and the “Molecular Mechanisms: viricidal activity” value [4] is listed as “Viricidal activity”.

In the case of `O=C1c2c(O)cc(O)cc2OC(c2ccc(O)cc2)C1C1C(=O)c2c(O)cc(O)cc2OC1c1ccc(O)cc1` (stereo not drawn) [Chamaejasmin], the “Molecular Mechanisms: NS1 glycosylation” value [5] is given as “Inhibition of NS1 glycosylation”.

In the case of `CC1O[C@@H](OC[C@H]2OC(Oc3cc4c(O)cc(O)cc4[o+]c3-c3cc(O)c(O)c(O)c3)[C@H](O)C(O)C2O)C(O)C(O)[C@H]1O` (stereo partly drawn) [Delphinidin-3-rutinoside], the “Molecular Mechanisms: HSV-1 replication” value [6] is given as “Inhibition of HSV-1”.

For `O=c1c(O)c(-c2ccc(O)cc2)oc2cc(O[C@@H]3O[C@H](CO)[C@@H](O)[C@H](O)[C@H]3O)cc(O)c12` [Kaempferol-7-O-glucoside], the “Molecular Mechanisms: virion production” value [7] is listed as “Inhibition virion production”.

For `O=c1cc(-c2ccc(O)c(O)c2)oc2cc(O)cc(O)c12` [Luteolin], the “Molecular Mechanisms: HCV replication” value [8] is given as “Inhibition of HCV”, the “Molecular Mechanisms: HCV replication” value [2] is given as “Inhibition HCV” and the CC50 [9] is given as 0.155 mM. The EC50 [10] was 10.6 µM.

In the case of `O=C1C[C@@H](c2ccc(O)cc2)Oc2cc(O)cc(O)c21` [Naringenin], the “Molecular Mechanisms: viral translation” value [11] is listed as “Inhibition Of viral”, the “Molecular Mechanisms: virion assembly” value [11] is listed as “Inhibition of virion” and the “Molecular Mechanisms: virion assembly” value [12] is listed as “Inhibition of virion assembly,”.

For `COc1ccc(-c2cc(=O)c3c(OC)c(OC)c(OC)c(OC)c3o2)cc1OC` [Nobiletin], the “Molecular Mechanisms: viral replication” value [13] is listed as “Inhibition of viral replication,” and the “Molecular Mechanisms: RSV entry into cells” value [13] is listed as “Inhibition of RSV entry into cells”.

In the case of `O=c1c(O)c(-c2ccc(O)c(O)c2)oc2cc(O)c(O)c(O)c12` [Quercetagetin], the “Molecular Mechanisms: RNA binding to NS5B” value ([8]; HCV, Ref. [39]) is listed as “Inhibition of RNA binding to NS5B”.

In the case of `O=c1c(O)c(-c2ccc(O)c(O)c2)oc2cc(O)cc(O)c12` [Quercetin, 2-(3,4-dihydroxyphenyl)-3,5,7-trihydroxy-4H-1 benzopyran-4-one], the “Molecular Mechanisms: HCV replication” value [8] is listed as “Inhibition of HCV”, the IC50 [14] is listed as 3.2 ± 0.8 µM and the “Molecular Mechanisms: viral translation” value [11] is listed as “Inhibition Of viral”. The “Molecular Mechanisms: virion assembly” value [11] was “Inhibition of virion”, the “DENV-2 ribonucleic acid (RNA) reduction” value [15] was 67% and the “IC50, DENV-2 replication” value [15] was 35.7 µg/mL (≈ 118 µM). The “reduced infectivity of bovine coronavirus NCDCV” value [16] was 50%, the “Molecular Mechanisms: virion assembly” value [12] was “Inhibition of virion assembly,” and the “Molecular Mechanisms: virion production” value ([3]; HCV NS3 protease) was “Inhibition of virion production”. The “Molecular Mechanisms: HCV replication” value [3] was “HCV NS3 protease Inhibition of HCV replication,”, the CC50 ([9]; read-out: cytotoxicity CC50, Vero E6 cells) was 3.32 mM and the “reduced infectivity of human coronavirus OC43” value [17] was 50%.

For `C[C@@H]1O[C@@H](Oc2c(-c3ccc(O)c(O)c3)oc3cc(O)cc(O)c3c2=O)[C@H](O)[C@H](O)[C@H]1O` [Quercetin-3-rhamnoside], the “Molecular Mechanisms: virus infection” value [18] is given as “Inhibition of virus infection”.

In the case of `COc1ccc(-c2cc(=O)c3c(OC)c(OC)c(OC)c(OC)c3o2)cc1` [Tangeretin], the “Molecular Mechanisms: viral replication” value [13] is listed as “Inhibition of viral replication,” and the “Molecular Mechanisms: RSV entry into cells” value [13] is listed as “Inhibition of RSV entry into cells”.

In the case of `C[C@@H]1O[C@@H](Oc2cc(O)c3c(=O)c(O)c(-c4ccc(O)c(O)c4)oc3c2)[C@H](O)[C@H](O)[C@H]1O` [quercetin 7-O-rhamnoside], the “IC50, PEDV replication” value [19] is given as 0.014 µg/mL (≈ 0.0312 µM) and the “50% cytotoxicity concentration (CC50)” value [20] is given as 100 µg/mL.

In the case of `CC(C)=CC[C@@]12Oc3cc(O)c([C@H]4C=C(C)C[C@H](c5ccc(O)cc5O)[C@H]4C(=O)c4ccc(O)cc4O)c(O)c3C(=O)[C@]1(O)Oc1cc(O)ccc12` [sanggenon O], the “Molecular Mechanisms: NS1 glycosylation” value [5] is given as “Inhibition of NS1 glycosylation”.

In the case of Catechin, the “Molecular Mechanisms: viral translation” value [11] is given as “Inhibition Of viral” and the “Molecular Mechanisms: virion assembly” value [11] is given as “Inhibition of virion”.

In the case of epigallocatechin-3-gallate [EGCG], the “Molecular Mechanisms: virion production” value [7] is given as “Inhibition virion production”, the “Molecular Mechanisms: NS1 glycosylation” value [5] is given as “Inhibition of NS1 glycosylation” and the “Molecular Mechanisms: HBV entry into cells” value [21] is given as “Inhibition of HBV entryinto”. For the same compound, the “Molecular Mechanisms: HIV replication” value [22] was “Inhibition of HIV”.
